Legend:
[1] = molecular target: estrogen receptor alpha (ESR1) in MCF7 breast cancer cells (Homo sapiens (Human), UniProt P03372); assay: Breast Cancer Cell ERa High Content Fluorescence Imaging Degradation Assay (Example 901); format: cell-based; conditions: 4 hours, plateau of maximal effect, 0% = DMSO, 100% change = 5 nM Fulvestrant
Procedure: Where more than one name is associated with a Formula I compound or intermediate, the chemical structure shall define the compound. […] Cell plates were incubated at 37° C., for 4 hours. Fixation and permeabilization were carried out using a Biotek EL406 plate washer and dispenser as follows. […] Well contents were aspirated and washed 3 times with 100 μL/well of PBS. […] Samples were incubated for 2 hours at room temperature. […] Samples were incubated for 2 hours at room temperature. […] Quantitative fluorescence imaging of ESR1 was carried out using a Cellomics Arrayscan V (Thermo). […] Channel 1 (DNA stain) was used to define the nuclear region (Circ). […] The “Robust Fit” method was used to define the inflexion point of curve (EC50) and the plateau of the maximal effect (Sinf).

ER-alpha MCF7 = ER-alpha MCF7 HCS EC50; stated as measured by in vitro cell proliferation assays of Examples 902 and 903; format: cell-based; conditions: Homo sapiens, Table 1
In short: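 MCF7 cells seeded 1000-2000 cells/well for 16 h, then treated with nine-point 1:2 DMSO dilution series in quadruplicate at 37 °C, 5% CO2 for 4 days. Viable cells quantified by CellTiter-Glo ATP luminescence; EC50 calculated. Controls: fulvestrant at final 100 nM, DMSO 0.2% v/v.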

Chain of estrogen receptor alpha (ESR1) in MCF7 breast cancer cells (P03372 whole entry): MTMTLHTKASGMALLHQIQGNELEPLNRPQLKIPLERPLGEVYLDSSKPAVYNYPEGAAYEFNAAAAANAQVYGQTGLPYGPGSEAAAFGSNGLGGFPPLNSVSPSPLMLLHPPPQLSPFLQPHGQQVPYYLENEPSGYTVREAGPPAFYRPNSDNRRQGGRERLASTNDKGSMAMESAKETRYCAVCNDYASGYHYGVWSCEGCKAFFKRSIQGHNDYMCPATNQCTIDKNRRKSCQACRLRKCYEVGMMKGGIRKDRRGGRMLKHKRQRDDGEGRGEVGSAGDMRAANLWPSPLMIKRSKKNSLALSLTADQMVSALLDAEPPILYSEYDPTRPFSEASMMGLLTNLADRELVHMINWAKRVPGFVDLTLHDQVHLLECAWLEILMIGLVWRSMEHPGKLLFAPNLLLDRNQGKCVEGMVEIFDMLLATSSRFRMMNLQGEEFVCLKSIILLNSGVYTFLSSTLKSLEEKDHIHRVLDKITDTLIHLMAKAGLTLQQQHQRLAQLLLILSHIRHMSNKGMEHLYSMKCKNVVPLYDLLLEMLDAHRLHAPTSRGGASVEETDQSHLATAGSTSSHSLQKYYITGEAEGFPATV

| SMILES | ER-alpha MCF7 HCS Sinf (%) [1] [%] | EC50 (ER-alpha MCF7; MCF7 cells) [nM] | EC50 (ER-alpha MCF7; MCF7, MCF7 cells) [nM] |
| --- | --- | --- | --- |
| CC(C)C(=O)N1[C@H](c2c(F)cc(OCCN3CC(CF)C3)cc2F)c2[nH]c3ccccc3c2C[C@H]1C [Example 103, 1-((1R,3R)-1-(2,6-difluoro-4-(2-(3-(fluoromethyl)azetidin-1-yl)ethoxy)phenyl)-3-methyl-3,4-dihydro-1H-pyrido[3,4-b]indol-2(9H)-yl)-2-methylpropan-1-one] | −91.8 | 0.11 | – |
| C[C@@H]1Cc2c([nH]c3ccccc23)[C@@H](c2c(F)cc(OCCN3CC(CF)C3)cc2F)N1C(=O)C(C)(C)F [Example 104, 1-((1R,3R)-1-(2,6-difluoro-4-(2-(3-(fluoromethyl)azetidin-1-yl)ethoxy)phenyl)-3-methyl-3,4-dihydro-1H-pyrido[3,4-b]indol-2(9H)-yl)-2-fluoro-2-methylpropan-1-one] | −95.4 | – | – |
| C[C@@H]1Cc2c([nH]c3ccccc23)[C@@H](c2c(F)cc(OCCN3CC(C(F)F)C3)cc2F)N1CC(C)(C)F [Example 105, (1R,3R)-1-(4-(2-(3-(difluoromethyl)azetidin-1-yl)ethoxy)-2,6-difluorophenyl)-2-(2-fluoro-2-methylpropyl)-3-methyl-2,3,4,9-tetrahydro-1H-pyrido[3,4-b]indole] | −94 | – | – |
| C[C@@H]1Cc2c([nH]c3ccccc23)[C@@H](c2c(F)cc(OC3CN(CCCCl)C3)cc2F)N1CC(C)(C)F [Example 106, (1R,3R)-1-(4-((1-(3-chloropropyl)azetidin-3-yl)oxy)-2,6-difluorophenyl)-2-(2-fluoro-2-methylpropyl)-3-methyl-2,3,4,9-tetrahydro-1H-pyrido[3,4-b]indole] | −90.4 | – | – |
| CCCN1CC(Oc2cc(F)c([C@@H]3c4[nH]c5ccccc5c4C[C@@H](C)N3CC(C)(C)F)c(F)c2)C1 [Example 107, (1R,3R)-1-(2,6-difluoro-4-((1-propylazetidin-3-yl)oxy)phenyl)-2-(2-fluoro-2-methylpropyl)-3-methyl-2,3,4,9-tetrahydro-1H-pyrido[3,4-b]indole] | −97.6 | – | – |
| C[C@@H]1Cc2c([nH]c3ccccc23)[C@@H](c2c(F)cc(OC[C@H](C)N3CC[C@@H](CF)C3)cc2F)N1CC(C)(C)F [Example 108, (1R,3R)-1-(2,6-difluoro-4-((S)-2-((R)-3-(fluoromethyl)pyrrolidin-1-yl)propoxy)phenyl)-2-(2-fluoro-2-methylpropyl)-3-methyl-2,3,4,9-tetrahydro-1H-pyrido[3,4-b]indole] | −79.3 | – | – |
| C[C@@H]1Cc2c([nH]c3ccccc23)[C@@H](c2c(F)cc(OCCN3CC[C@@H](CF)C3)cc2F)N1CC(C)(C)F [Example 109, (1R,3R)-1-(2,6-difluoro-4-(2-((R)-3-(fluoromethyl)pyrrolidin-1-yl)ethoxy)phenyl)-2-(2-fluoro-2-methylpropyl)-3-methyl-2,3,4,9-tetrahydro-1H-pyrido[3,4-b]indole] | −86.5 | – | – |
| C[C@@H]1Cc2c([nH]c3ccccc23)[C@@H](c2c(F)cc(OCCN3CC(CF)C3)cc2F)N1CC1CCC1 [Example 113, (1R,3R)-2-(cyclobutylmethyl)-1-(2,6-difluoro-4-(2-(3-(fluoromethyl)azetidin-1-yl)ethoxy)phenyl)-3-methyl-2,3,4,9-tetrahydro-1H-pyrido[3,4-b]indole] | −94.8 | – | 6.18 |
| C[C@@H]1Cc2c([nH]c3ccccc23)[C@@H](c2c(F)cc(OCCN3CC(CF)C3)cc2F)N1CC1COC1 [Example 115, (1R,3R)-1-(2,6-difluoro-4-(2-(3-(fluoromethyl)azetidin-1-yl)ethoxy)phenyl)-3-methyl-2-(oxetan-3-ylmethyl)-2,3,4,9-tetrahydro-1H-pyrido[3,4-b]indole] | −95.5 | – | 23.1 |
| C[C@@H]1Cc2c([nH]c3ccccc23)[C@@H](c2c(F)cc(OCCN3CC(CF)C3)cc2F)N1C1COC1 [Example 116, (1R,3R)-1-(2,6-difluoro-4-(2-(3-(fluoromethyl)azetidin-1-yl)ethoxy)phenyl)-3-methyl-2-(oxetan-3-yl)-2,3,4,9-tetrahydro-1H-pyrido[3,4-b]indole] | −85 | – | 41.4 |
| C[C@@H]1Cc2c([nH]c3ccccc23)[C@@H](c2c(F)cc(OCCN3CCCC3)cc2F)N1CC(C)(C)F [Example 117, (1R,3R)-1-(2,6-difluoro-4-(2-(pyrrolidin-1-yl)ethoxy)phenyl)-2-(2-fluoro-2-methylpropyl)-3-methyl-2,3,4,9-tetrahydro-1H-pyrido[3,4-b]indole] | −71.7 | – | – |
| C[C@@H]1Cc2c([nH]c3ccccc23)[C@@H](c2c(F)cc(OCCN3CCCCC3)cc2F)N1CC(C)(C)F [Example 118, (1R,3R)-1-(2,6-difluoro-4-(2-(piperidin-1-yl)ethoxy)phenyl)-2-(2-fluoro-2-methylpropyl)-3-methyl-2,3,4,9-tetrahydro-1H-pyrido[3,4-b]indole] | −72.2 | – | – |
| C[C@@H]1Cc2c([nH]c3ccccc23)[C@@H](c2c(F)cc(OCCN3CC(CO)C3)cc2F)N1CC(C)(C)F [Example 119, (1-(2-(3,5-difluoro-4-((1R,3R)-2-(2-fluoro-2-methylpropyl)-3-methyl-2,3,4,9-tetrahydro-1H-pyrido[3,4-b]indol-1-yl)phenoxy)ethyl)azetidin-3-yl)methanol] | −71.3 | – | – |
| C[C@@H]1Cc2c([nH]c3ccccc23)[C@@H](c2ccc(OCCN3CC(CF)C3)cc2F)N1CC(C)(C)F [Example 120, (1R,3R)-2-(2-fluoro-2-methylpropyl)-1-(2-fluoro-4-(2-(3-(fluoromethyl)azetidin-1-yl)ethoxy)phenyl)-3-methyl-2,3,4,9-tetrahydro-1H-pyrido[3,4-b]indole] | −96.3 | – | 0.0562 |
| CC(=O)N1[C@H](c2c(F)cc(OCCN3CC(CF)C3)cc2F)c2[nH]c3ccccc3c2C[C@H]1C [Example 121, 1-((1R,3R)-1-(2,6-difluoro-4-(2-(3-(fluoromethyl)azetidin-1-yl)ethoxy)phenyl)-3-methyl-3,4-dihydro-1H-pyrido[3,4-b]indol-2(9H)-yl)ethanone] | −91 | – | – |
| C[C@@H]1Cc2c([nH]c3ccccc23)[C@@H](c2c(F)cc(OCCN3CC(CF)C3)cc2F)N1C(=O)C(C)(C)O [Example 122, 1-((1R,3R)-1-(2,6-difluoro-4-(2-(3-(fluoromethyl)azetidin-1-yl)ethoxy)phenyl)-3-methyl-3,4-dihydro-1H-pyrido[3,4-b]indol-2(9H)-yl)-2-hydroxy-2-methylpropan-1-one] | −97.8 | – | 1.4 |
| C[C@@H](CO)CN1[C@H](c2c(F)cc(OCCN3CC(CF)C3)cc2F)c2[nH]c3ccccc3c2C[C@H]1C [Example 123, (R)-3-((1R,3R)-1-(2,6-difluoro-4-(2-(3-(fluoromethyl)azetidin-1-yl)ethoxy)phenyl)-3-methyl-3,4-dihydro-1H-pyrido[3,4-b]indol-2(9H)-yl)-2-methylpropan-1-ol] | −96.1 | – | 1.04 |
| C[C@@H]1Cc2c([nH]c3ccccc23)[C@@H](c2c(F)cc(OCCN3CC(CF)C3)cc2F)N1C(=O)C1CC(O)C1 (stereo partly drawn) [Example 124, ((1R,3R)-1-(2,6-difluoro-4-(2-(3-(fluoromethyl)azetidin-1-yl)ethoxy)phenyl)-3-methyl-3,4-dihydro-1H-pyrido[3,4-b]indol-2(9H)-yl)((1s,3S)-3-hydroxycyclobutyl) methanone] | −75 | – | 135 |
| CC(C)C(=O)N1C(c2c(F)cc(OCCN3CC(CF)C3)cc2F)c2[nH]c3ccccc3c2CC1(C)C (centres unmarked) [Example 125, 1-(1-(2,6-difluoro-4-(2-(3-(fluoromethyl)azetidin-1-yl)ethoxy)phenyl)-3,3-dimethyl-3,4-dihydro-1H-pyrido[3,4-b]indol-2(9H)-yl)-2-methylpropan-1-one] | −90 | – | 74.4 |
| C[C@@H]1Cc2c([nH]c3ccccc23)[C@@H](c2c(F)cc(OCCN3CC(CF)C3)cc2F)N1S(C)(=O)=O [Example 126, (1R,3R)-1-(2,6-difluoro-4-(2-(3-(fluoromethyl)azetidin-1-yl)ethoxy)phenyl)-3-methyl-2-(methylsulfonyl)-2,3,4,9-tetrahydro-1H-pyrido[3,4-b]indole] | −94.4 | – | – |

From patent US20250114338A1, “TETRAHYDRO-PYRIDO[3,4-b]INDOLE ESTROGEN RECEPTOR MODULATORS AND USES THEREOF” (Genentech, Inc., priority 2014, published 2025)
